Data reported in US6756359B2, “C12 modified erythromycin macrolides and ketolides having antibacterial activity” (Chiron Corporation, priority 2001, dated 2004).
In brackets after ≈: the same amount, converted by molar mass.

Columns and labels:
Experiment in all cases: Antibacterial activity in vitro, MIC by broth microdilution
[1] = tested on: S. epidermidis Step_14990; assay type: cell-based; conditions: Table 5, Strain ID B: S. epidermidis Step_14990; unit assumed
Experimental: (§1) Representative compounds of the present invention were assayed in vitro for antibacterial activity against the bacterial isolates listed in Table 1 as follows:
(§2) The bacterial isolates listed in Table 1 were cultivated from −70° C. frozen stocks by two consecutive overnight passages (P1, P2) at 35° C. on 5% blood agar (Remel, Lenexa, Kans.). Chocolate agar (Remel) is used for Haemophilus influenzae. H. influenzae and Streptococcus pneumoniae are incubated in 5-10% CO2.
(§3) To determine the amount of solvent to be used to give the desired final concentration, the formula “weight obtained in mg/final concentration in mg/mL” will be used. It will give the amount of solvent in mL needed to be added to give the desired concentration. For example, if 2.5 mg/mL is the desired concentration and the weight of compound is 13.7 mg, then the amount of solvent to be added is 3.94 mL (13.7 mg/2.5 mg/mL=3.94 mLs). Methanol is used as the solvent to dissolve the test compounds. Further dilution of stock is done in sterile, deioinzed water. Drug stocks are kept frozen at −70° C., protected from light.
(§4) MICs are determined by the broth microdilution method in accordance with the NCCLS guidelines. In brief, organism suspensions are adjusted to a 0.5 McFarland standard to yield a final inoculum between 3×10^5 and 7×10^5 CFU/mL. Drug dilutions and inocula are made in sterile, cation adjusted Mueller-Hinton Broth (CAMHB) (Remel) for all but S. pneumoniae [CAMHB with 2-5% lysed horse blood (Remel)] and H. influenzae [Haemophilus Test Medium (Remel)]. An inoculum volume of 100 μl is added to wells containing 100 μl of broth with 2-fold serial dilutions of drug. All inoculated microdilution trays are incubated in ambient air at 35° C. for 18-24 hours, except for S. pneumoniae, and H. influenzae (both at 5-10% CO2).
(§5) Following appropriate incubation, the MIC is determined and the MIC is defined as the lowest concentration of the drug that prevented visible growth.

[2] = tested on: S. pyogenes Stpy_8668; assay type: cell-based; conditions: Table 5, Strain ID E: S. pyogenes Stpy_8668
Experimental: as §1, §2, §3, §4, §5

[3] = tested on: S. epidermidis Step_f50654 Pen S; assay type: cell-based; conditions: Table 5, Strain ID C: S. epidermidis Step_f50654; unit assumed
Experimental: as §1, §2, §3, §4, §5

[4] = tested on: E. faecalis Enfa_29212; assay type: cell-based; conditions: Table 5, Strain ID D: E. faecalis Enfa_29212; unit assumed
Experimental: as §1, §2, §3, §4, §5

[5] = tested on: S. aureus Stau_29213; assay type: cell-based; conditions: Table 5, Strain ID A: S. aureus Stau_29213; unit assumed
Experimental: as §1, §2, §3, §4, §5

[6] = tested on: H. influenzae Hain_49247; assay type: cell-based, Haemophilus influenzae; conditions: Table 5, Strain ID M: H. influenzae Hain_49247; unit assumed
Experimental: as §1, §2, §3, §4, §5

[7] = tested on: S. pneumoniae Stpn_Mef 5654; assay type: cell-based, Streptococcus pneumoniae; conditions: Table 5, Strain ID K: S. pneumoniae Stpn_Mef 5654; unit assumed
Experimental: as §1, §2, §3, §4, §5

[8] = tested on: S. pneumoniae Stpn_Erm S 4297; assay type: cell-based, Streptococcus pneumoniae; conditions: Table 5, Strain ID J: S. pneumoniae Stpn_Erm S 4297
Experimental: as §1, §2, §3, §4, §5

[9] = tested on: S. pneumoniae Stpn_Mef S 3427; assay type: cell-based, Streptococcus pneumoniae; conditions: Table 5, Strain ID L: S. pneumoniae Stpn_Mef S 3427; unit assumed
Experimental: as §1, §2, §3, §4, §5

[10] = tested on: S. pneumoniae Stpn_297-749 Pen R; assay type: cell-based, Streptococcus pneumoniae; conditions: Table 5, Strain ID G: S. pneumoniae Stpn_297-749
Experimental: as §1, §2, §3, §4, §5

[11] = tested on: S. pneumoniae Stpn_280-962 Pen S; assay type: cell-based, Streptococcus pneumoniae; conditions: Table 5, Strain ID H: S. pneumoniae Stpn_280-962
Experimental: as §1, §2, §3, §4, §5

[12] = tested on: S. pneumoniae Stpn_Erm 6849; assay type: cell-based, Streptococcus pneumoniae; conditions: Table 5, Strain ID I: S. pneumoniae Stpn_Erm 6849
Experimental: as §1, §2, §3, §4, §5

[13] = tested on: S. pneumoniae Stpn_49619; assay type: cell-based, Streptococcus pneumoniae; conditions: Table 5, Strain ID F: S. pneumoniae Stpn_49619
Experimental: as §1, §2, §3, §4, §5

| Compound | MIC [1] | MIC [2] | MIC [3] | MIC [4] | MIC [5] | MIC [6] | MIC [7] | MIC ([8]; unit assumed) | MIC [9] | MIC [10] | MIC [11] | MIC ([12]; unit assumed) | MIC [13] | MIC [12] | MIC ([13]; unit assumed) | MIC ([2]; unit assumed) | MIC [8] |
| --- | --- | --- | --- | --- | --- | --- | --- | --- | --- | --- | --- | --- | --- | --- | --- | --- | --- |
| CC[C@H]1OC(=O)[C@H](C)C(=O)[C@H](C)[C@@H](OC2O[C@H](C)C[C@H](N(C)C)[C@H]2O)[C@@](C)(OC)C[C@@H](C)C(=O)[C@H](C)[C@H]2N(CCN(C)Cc3cccnc3)C(=O)O[C@]12CC (stereo partly drawn) [Example 23, (3aS,4R,7R,9R,10R,11S,13R,15R,15aR)-3a,4-diethyl-11-methoxy-7,9,11,13,15-pentamethyl-1-{2-[methyl(pyridin-3-ylmethyl)amino]ethyl}-2,6,8,14-tetraoxotetradecahydro-2H-oxacyclotetradecino[4,3-d][1,3]oxazol-10-yl 3,4,6-trideoxy-3-(dimethylamino)-D-xylo-hexopyranoside] | 0.78 µg/mL (≈ 1.01 µM) | ≦0.05 | 0.78 µg/mL (≈ 1.01 µM) | 0.2 µg/mL (≈ 0.258 µM) | 1.56 µg/mL (≈ 2.01 µM) | 6.25 µg/mL (≈ 8.06 µM) | 0.4 µg/mL (≈ 0.516 µM) | 0.2 µg/mL (≈ 0.258 µM) | 0.1 µg/mL (≈ 0.129 µM) | ≦0.05 | ≦0.05 | 0.78 µg/mL (≈ 1.01 µM) | ≦0.05 |  |  |  |  |
| CC[C@H]1OC(=O)[C@H](C)C(=O)[C@H](C)[C@@H](OC2O[C@H](C)C[C@H](N(C)C)[C@H]2O)[C@@](C)(OC)C[C@@H](C)C(=O)[C@H](C)[C@H]2N(CCCCn3cnc(-c4ccc(F)nc4)c3)C(=O)O[C@]12CC (stereo partly drawn) [Example 33, (3aS,4R,7R,9R,10R,11S,13R,15R,15aR)-3a,4-diethyl-1-{4-[4-(6-fluoropyridin-3-yl)-1H-imidazol-1-yl]butyl}-11-methoxy-7,9,11,13,15-pentamethyl-2,6,8,14-tetraoxotetradecahydro-2H-oxacyclotetradecino[4,3-d][1,3]oxazol-10-yl 3,4,6-trideoxy-3-(dimethylamino)-D-xylo-hexopyranoside] | 0.2 µg/mL (≈ 0.237 µM) | ≦0.05 | 0.2 µg/mL (≈ 0.237 µM) | 0.1 µg/mL (≈ 0.118 µM) | 0.4 µg/mL (≈ 0.474 µM) | 0.1 µg/mL (≈ 0.118 µM) | 0.1 µg/mL (≈ 0.118 µM) | 0.4 µg/mL (≈ 0.474 µM) | 0.4 µg/mL (≈ 0.474 µM) | ≦0.05 | ≦0.05 |  |  | ≦0.05 | 3.13 µg/mL (≈ 3.71 µM) |  |  |
| CC[C@H]1OC(=O)[C@H](C)C(=O)[C@H](C)[C@@H](OC2O[C@H](C)C[C@H](N(C)C)[C@H]2O)[C@@](C)(OC)C[C@@H](C)C(=O)[C@H](C)[C@H]2N(CCCOc3cccc(-c4cccnc4)c3)C(=O)O[C@]12CC (stereo partly drawn) [Example 35, (3aS,4R,7R,9R,10R,11S,13R,15R,15aR)-3a,4-diethyl-11-methoxy-7,9,11,13,15-pentamethyl-2,6,8,14-tetraoxo-1-[3-(3-pyridin-3-ylphenoxy)propyl]-tetradecahydro-2H-oxacyclotetradecino[4,3-d][1,3]oxazol-10-yl 3,4,6-trideoxy-3-(dimethylamino)-D-xylo-hexopyranoside] | 0.78 µg/mL (≈ 0.931 µM) |  | 0.78 µg/mL (≈ 0.931 µM) | 0.2 µg/mL (≈ 0.239 µM) | 0.78 µg/mL (≈ 0.931 µM) | 0.2 µg/mL (≈ 0.239 µM) | 0.78 µg/mL (≈ 0.931 µM) | 3.13 µg/mL (≈ 3.73 µM) | 0.78 µg/mL (≈ 0.931 µM) | ≦0.05 | ≦0.05 |  |  | ≦0.05 | 6.25 µg/mL (≈ 7.46 µM) | 0.2 µg/mL (≈ 0.239 µM) |  |
| C/C=C\[C@]12OC(=O)N(CCCCn3cnc(-c4cccnc4)c3)[C@@H]1[C@@H](C)C(=O)[C@H](C)C[C@](C)(OC)[C@H](O[C@@H]1O[C@H](C)C[C@H](N(C)C)[C@H]1O)[C@@H](C)C(=O)[C@](C)(F)C(=O)O[C@@H]2CC [Example 66, (3aS,4R,7S,9R,10R,11S,13R,15R,15aR)-4-ethyl-7-fluoro-11-methoxy-7,9,11,13,15-pentamethyl-2,6,8,14-tetraoxo-3a-[(1Z)-prop-1-enyl]-1-[4-(4-pyridin-3-yl-1H-imidazol-1-yl)butyl]tetradecahydro-2H-oxacyclotetradecino[4,3-d][1,3]oxazol-10-yl 3,4,6-trideoxy-3-(dimethylamino)-D-xylo-hexopyranoside] | 0.2 µg/mL (≈ 0.234 µM) | ≦0.05 | 0.2 µg/mL (≈ 0.234 µM) | 0.01 µg/mL (≈ 0.0117 µM) | 0.2 µg/mL (≈ 0.234 µM) | 6.25 µg/mL (≈ 7.3 µM) | 0.4 µg/mL (≈ 0.467 µM) | 0.1 µg/mL (≈ 0.117 µM) | 0.1 µg/mL (≈ 0.117 µM) | ≦0.05 | ≦0.05 | 0.2 µg/mL (≈ 0.234 µM) | ≦0.05 |  |  |  |  |
| CC[C@H]1OC(=O)[C@H](C)C(=O)[C@H](C)[C@@H](OC2O[C@H](C)C[C@H](N(C)C)[C@H]2O)[C@@](C)(OC)C[C@@H](C)C(=O)[C@H](C)[C@H]2N(CCCC(C)(C)n3cnc4ncccc43)C(=O)O[C@]12CC (stereo partly drawn) [Example 37, (3aS,4R,7R,9R,10R,11S,13R,15R,15aR)-3a,4-diethyl-1-[4-(1H-imidazo[4,5-b]pyridin-1-yl)-4-methylpentyl]-11-methoxy-7,9,11,13,15-pentamethyl-2,6,8,14-tetraoxotetradecahydro-2H-oxacyclotetradecino[4,3-d][1,3]oxazol-10-yl 3,4,6-trideoxy-3-(dimethylamino)-D-xylo-hexopyranoside] | 0.2 µg/mL (≈ 0.242 µM) | ≦0.05 | 0.2 µg/mL (≈ 0.242 µM) | 0.1 µg/mL (≈ 0.121 µM) | 0.4 µg/mL (≈ 0.483 µM) | 6.25 µg/mL (≈ 7.55 µM) | 1.56 µg/mL (≈ 1.88 µM) | 0.1 µg/mL (≈ 0.121 µM) | 0.2 µg/mL (≈ 0.242 µM) | ≦0.05 | ≦0.05 | 0.4 µg/mL (≈ 0.483 µM) | ≦0.05 |  |  |  |  |
| CC[C@H]1OC(=O)[C@H](C)C(=O)[C@H](C)[C@@H](OC2O[C@H](C)C[C@H](N(C)C)[C@H]2O)[C@@](C)(OC)C[C@@H](C)C(=O)[C@H](C)[C@H]2N(CCCCn3cnc(-c4cncnc4)c3)C(=O)O[C@]12CC (stereo partly drawn) [Example 25, (3aS,4R,7R,9R,10R,11S,13R,15R,15aR)-3a,4-diethyl-11-methoxy-7,9,11,13,15-pentamethyl-2,6,8,14-tetraoxo-1-[4-(4-pyrimidin-5-yl-1H-imidazol-1-yl)butyl]tetradecahydro-2H-oxacyclotetradecino[4,3-d][1,3]oxazol-10-yl 3,4,6-trideoxy-3-(dimethylamino)-D-xylo-hexopyranoside] | 0.2 µg/mL (≈ 0.242 µM) | ≦0.05 | 0.2 µg/mL (≈ 0.242 µM) | 0.1 µg/mL (≈ 0.121 µM) | 0.4 µg/mL (≈ 0.484 µM) | 3.13 µg/mL (≈ 3.78 µM) | 0.4 µg/mL (≈ 0.484 µM) | 0.1 µg/mL (≈ 0.121 µM) | 0.1 µg/mL (≈ 0.121 µM) | ≦0.05 | ≦0.05 | 0.1 µg/mL (≈ 0.121 µM) | ≦0.05 |  |  |  |  |
| C=C[C@]12OC(=O)N(CCCCn3cnc(-c4cccnc4)c3)[C@@H]1[C@@H](C)C(=O)[C@H](C)C[C@@](C)(OC)[C@H](OC1O[C@H](C)C[C@H](N(C)C)[C@H]1O)[C@@H](C)C(=O)[C@@H](C)C(=O)O[C@@H]2CC (stereo partly drawn) [Example 48, (3aS,4R,7R,9R,10R,11R,13R,15R,15aR)-4-ethyl-11-methoxy-7,9,11,13,15-pentamethyl-2,6,8,14-tetraoxo-1-[4-(4-pyridin-3-yl-1H-imidazol-1-yl)butyl]-3a-vinyltetradecahydro-2H-oxacyclotetradecino[4,3-d][1,3]oxazol-10-yl 3,4,6-trideoxy-3-(dimethylamino)-D-xylo-hexopyranoside] | 0.2 µg/mL (≈ 0.243 µM) | ≦0.05 | 0.2 µg/mL (≈ 0.243 µM) | 0.1 µg/mL (≈ 0.121 µM) | 0.2 µg/mL (≈ 0.243 µM) | 3.13 µg/mL (≈ 3.8 µM) | 0.78 µg/mL (≈ 0.947 µM) |  | 0.1 µg/mL (≈ 0.121 µM) | ≦0.05 | ≦0.05 | 0.4 µg/mL (≈ 0.485 µM) | ≦0.05 |  |  |  | ≦0.05 |
